Results on two compounds are retold here after ChEMBL document CHEMBL1201862, “PubChem BioAssay data set” (2004).

Each structure is given as a SMILES string. Calls of active or inactive are those of the source.

Common to all, as to format: functional
Experiment [1] deals with Rho-associated protein kinase 2 (Homo sapiens, UniProt O75116).
Experiment [2] has as its target Homeodomain-interacting protein kinase 2 (Homo sapiens, UniProt Q9H2X6).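 Further: measured within a kinome-wide kinase profiling panel, HIPK2 being one panel member.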
Experiment [3] addresses cAMP-dependent protein kinase catalytic subunit alpha (Homo sapiens, UniProt P17612).
In experiment [4] the target is T1, Sentrin-specific protease 7 (Homo sapiens, UniProt Q9BQF6).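 Further: Luminescence-based dose-response confirmation of ultra-high-throughput screening hits, measuring inhibition of SENP7.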
T1 sequence (Q9BQF6 whole entry): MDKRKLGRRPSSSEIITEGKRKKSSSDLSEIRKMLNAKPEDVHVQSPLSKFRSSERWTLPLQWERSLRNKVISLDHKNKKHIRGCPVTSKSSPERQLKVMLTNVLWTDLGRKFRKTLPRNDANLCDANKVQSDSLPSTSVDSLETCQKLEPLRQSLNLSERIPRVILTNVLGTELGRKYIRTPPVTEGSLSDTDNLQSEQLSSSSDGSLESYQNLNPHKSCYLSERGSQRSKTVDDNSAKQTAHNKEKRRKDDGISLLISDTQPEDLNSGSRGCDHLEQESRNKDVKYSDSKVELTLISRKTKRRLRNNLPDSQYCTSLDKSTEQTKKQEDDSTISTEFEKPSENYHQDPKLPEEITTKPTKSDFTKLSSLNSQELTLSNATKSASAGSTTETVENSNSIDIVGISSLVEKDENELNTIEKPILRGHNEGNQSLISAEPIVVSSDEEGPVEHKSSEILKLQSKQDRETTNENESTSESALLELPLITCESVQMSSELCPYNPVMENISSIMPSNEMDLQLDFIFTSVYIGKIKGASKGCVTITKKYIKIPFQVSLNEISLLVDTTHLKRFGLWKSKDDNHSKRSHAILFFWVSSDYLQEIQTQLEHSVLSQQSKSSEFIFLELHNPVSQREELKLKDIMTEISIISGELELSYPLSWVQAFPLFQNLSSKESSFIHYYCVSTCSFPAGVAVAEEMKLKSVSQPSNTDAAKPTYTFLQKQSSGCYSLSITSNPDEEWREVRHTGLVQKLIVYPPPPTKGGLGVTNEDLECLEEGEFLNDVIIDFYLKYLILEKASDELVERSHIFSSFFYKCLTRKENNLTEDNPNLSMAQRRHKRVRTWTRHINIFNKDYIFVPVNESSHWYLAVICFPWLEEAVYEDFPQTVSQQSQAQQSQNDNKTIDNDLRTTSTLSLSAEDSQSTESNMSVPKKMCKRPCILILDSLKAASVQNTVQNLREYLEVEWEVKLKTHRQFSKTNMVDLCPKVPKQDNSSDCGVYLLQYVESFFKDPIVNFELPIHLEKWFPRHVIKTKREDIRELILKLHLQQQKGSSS

Chain of Homeodomain-interacting protein kinase 2 (Q9H2X6 whole entry): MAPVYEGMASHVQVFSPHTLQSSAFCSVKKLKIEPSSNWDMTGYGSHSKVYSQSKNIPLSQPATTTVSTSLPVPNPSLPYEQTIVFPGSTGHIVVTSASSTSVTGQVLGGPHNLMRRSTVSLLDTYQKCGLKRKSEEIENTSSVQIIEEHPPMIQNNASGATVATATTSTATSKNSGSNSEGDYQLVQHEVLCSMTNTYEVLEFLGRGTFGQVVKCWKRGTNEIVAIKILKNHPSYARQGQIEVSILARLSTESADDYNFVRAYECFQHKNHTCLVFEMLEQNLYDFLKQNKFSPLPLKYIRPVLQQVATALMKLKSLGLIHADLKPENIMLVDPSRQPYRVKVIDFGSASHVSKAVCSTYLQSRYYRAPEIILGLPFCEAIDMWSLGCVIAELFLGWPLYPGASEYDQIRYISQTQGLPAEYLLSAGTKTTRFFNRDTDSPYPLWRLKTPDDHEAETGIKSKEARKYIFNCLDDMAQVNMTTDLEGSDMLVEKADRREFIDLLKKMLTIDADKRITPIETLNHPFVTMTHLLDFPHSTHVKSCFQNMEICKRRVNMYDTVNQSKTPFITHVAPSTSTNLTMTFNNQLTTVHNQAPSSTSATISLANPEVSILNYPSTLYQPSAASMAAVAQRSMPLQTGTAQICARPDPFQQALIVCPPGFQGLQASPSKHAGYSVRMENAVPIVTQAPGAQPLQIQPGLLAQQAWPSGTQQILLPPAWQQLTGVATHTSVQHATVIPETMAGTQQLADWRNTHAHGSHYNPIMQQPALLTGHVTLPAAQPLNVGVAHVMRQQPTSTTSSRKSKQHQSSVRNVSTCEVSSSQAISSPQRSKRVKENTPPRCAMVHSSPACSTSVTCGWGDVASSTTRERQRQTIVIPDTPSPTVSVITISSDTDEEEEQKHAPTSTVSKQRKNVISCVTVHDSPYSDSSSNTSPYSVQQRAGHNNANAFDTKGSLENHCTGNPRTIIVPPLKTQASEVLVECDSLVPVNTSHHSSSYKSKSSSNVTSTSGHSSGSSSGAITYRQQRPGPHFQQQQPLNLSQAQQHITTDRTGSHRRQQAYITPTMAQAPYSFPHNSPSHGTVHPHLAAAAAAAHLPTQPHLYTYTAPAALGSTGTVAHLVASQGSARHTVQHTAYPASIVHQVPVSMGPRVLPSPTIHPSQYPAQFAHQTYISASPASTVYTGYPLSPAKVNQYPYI
Chain of Rho-associated protein kinase 2 (O75116 whole entry): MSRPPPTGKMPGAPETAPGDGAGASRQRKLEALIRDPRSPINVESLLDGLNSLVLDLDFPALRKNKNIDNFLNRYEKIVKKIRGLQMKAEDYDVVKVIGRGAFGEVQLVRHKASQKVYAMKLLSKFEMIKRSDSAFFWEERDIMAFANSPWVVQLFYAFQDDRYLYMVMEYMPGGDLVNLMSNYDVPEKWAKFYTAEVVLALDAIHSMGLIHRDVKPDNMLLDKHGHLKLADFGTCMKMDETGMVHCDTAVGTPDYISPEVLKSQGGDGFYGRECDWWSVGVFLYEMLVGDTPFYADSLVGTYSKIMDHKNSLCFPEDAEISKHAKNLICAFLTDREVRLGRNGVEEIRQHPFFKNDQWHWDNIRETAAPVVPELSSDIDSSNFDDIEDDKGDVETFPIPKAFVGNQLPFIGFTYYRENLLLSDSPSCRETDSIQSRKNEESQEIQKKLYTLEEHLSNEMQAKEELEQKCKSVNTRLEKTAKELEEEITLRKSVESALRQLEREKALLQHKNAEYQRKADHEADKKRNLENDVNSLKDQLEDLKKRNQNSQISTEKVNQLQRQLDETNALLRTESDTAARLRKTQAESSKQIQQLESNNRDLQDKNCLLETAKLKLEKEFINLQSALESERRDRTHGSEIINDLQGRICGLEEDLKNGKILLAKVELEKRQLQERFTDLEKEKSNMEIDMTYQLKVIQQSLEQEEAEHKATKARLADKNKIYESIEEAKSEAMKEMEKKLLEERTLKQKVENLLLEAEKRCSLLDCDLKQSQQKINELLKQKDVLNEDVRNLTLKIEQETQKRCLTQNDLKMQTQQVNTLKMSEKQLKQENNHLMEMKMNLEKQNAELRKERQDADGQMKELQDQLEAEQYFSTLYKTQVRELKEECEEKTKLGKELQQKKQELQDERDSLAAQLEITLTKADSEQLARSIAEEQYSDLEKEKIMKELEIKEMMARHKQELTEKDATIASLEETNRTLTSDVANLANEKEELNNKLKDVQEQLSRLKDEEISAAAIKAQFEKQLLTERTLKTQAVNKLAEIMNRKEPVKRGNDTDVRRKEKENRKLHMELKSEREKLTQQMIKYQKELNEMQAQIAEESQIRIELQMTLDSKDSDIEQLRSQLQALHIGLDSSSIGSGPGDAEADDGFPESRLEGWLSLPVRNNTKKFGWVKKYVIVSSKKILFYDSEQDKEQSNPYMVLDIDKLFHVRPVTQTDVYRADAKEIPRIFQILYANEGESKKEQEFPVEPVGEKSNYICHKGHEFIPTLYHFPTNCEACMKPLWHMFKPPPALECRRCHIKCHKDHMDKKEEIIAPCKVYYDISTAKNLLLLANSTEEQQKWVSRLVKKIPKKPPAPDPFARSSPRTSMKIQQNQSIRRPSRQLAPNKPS

Regarding `NC1CCC(Nc2nc(Cl)cc(-c3c[nH]c4ncccc34)n2)CC1` (configuration not stated), the Ki in experiment [1] is 0.002 µM (active); in experiment [2], 0.0398 µM (active); in experiment [3], 0.00794 µM (active). Further, the figures for the pKi in experiment [1], in experiment [2] and in experiment [3] were 8.7, 7.4 and 8.1, respectively.

`COc1ccc(C(=O)c2nccc3cc(OC)c(OC)cc23)cc1OC`: in experiment [4], the IC50 is 1.67 µM (active).
